In brackets after ≈: the same amount, converted by molar mass.
What was measured:
[1] = test system: egg of the two-spotted mite; assay: Mite Ovicide Test (eggs); assay type: in vivo, Tetranychus urticae (Koch); set-up: key to Miticidal, Egg: A: Excellent Control; B: Partial Control; No Control; details: for Miticidal, Egg: Table II, unhatched eggs after four days; for LC50: Tetranychus urticae, Table III, ppm required for a 50 percent kill of eggs, read-out: Miticidal LD50, Egg
Description: Suspensions of the test compounds were prepared by dissolving one gram of compound in 50 milliliters of acetone in which had been dissolved 0.1 gram (10 percent of the weight of compound) of an alkylphenoxyethanol sufactant, as an emulsifying or dispersing agent. The resulting solution was mixed into 160 milliliters of water to give roughly 200 milliliters of a suspension containing the compound in finely divided form. The thus prepared stock suspension contained 0.5 percent by weight of compound. The test concentrations employed in the tests described below were obtained by diluting the stock suspension with water. The test procedures were as follows: The test organism was the egg of the two-spotted mite (Tetranychus urticae (Koch)), as obtained from adults reared on […] bean plants under controlled conditions of 80±5° F. and 50±5 percent relative humidity. Heavily infested leaves from a stock culture were placed on the primary leaves of two bean plants six to eight inches in height growing in a two-and-a-half inch clay pot. Females were allowed to oviposit for a period of 48 hours and the leaves of the infested plants were dipped in a solution containing 800 parts of tetraethyl pyrophosphate per million parts of water in order to destroy the reproductory forms and thus prevent further egg laying. […] The plants were allowed to dry thoroughly. The test compounds were formulated by diluting the stock suspension with water to give a suspension containing varying amounts of test compound per million parts of final formulation. The potted plants (one pot per compound) were placed on a revolving turntable and sprayed with 100-110 milliliters of test compound formulation by use of a DeVilbis spray gun set at 40 spig. air pressure. This application which lasted 30 seconds, was sufficient to wet the plants to run-off. As a control, 100-110 milliliters of a water solution containing acetone and emulsifier in the same concentrations as the test compound formulation, but containing no test compound, were also sprayed on plants infested with eggs. The sprayed plants were held at 80±5° F. and 50±5 percent relative humidity for four days, after which a microscopic examination was made of unhatched (dead) and hatched (living) eggs. In these tests the pesticidal activity of the compounds against mites and mite eggs was rated as follows: Tests were conducted in accordance with the procedures given at pages 17 to 21 supra. The results are expressed in the same manner as used in Table II, except with respect to miticidal activity. For mite adult and mite egg comparison purposes, results are given in parts per million (ppm) required for a 50 percent kill of mites or eggs, respectively.

Bean = assay: Post-emergent herbicidal test, bean; assay type: in vivo; set-up: key: 1: no perceptible injury; 2: intermediate degrees of injury; 3: intermediate degrees of injury; 4: intermediate degrees of injury; 5: the plant was dead; details: 2500 parts per million, after ten days; for Post-emergent Herbicidal, Bean: Table II; for Post Emergent Herbicidal, Bean: Table III
Description: (§1) Suspensions of the test compounds were prepared by dissolving one gram of compound in 50 milliliters of acetone in which had been dissolved 0.1 gram (10 percent of the weight of compound) of an alkylphenoxyethanol sufactant, as an emulsifying or dispersing agent. The resulting solution was mixed into 160 milliliters of water to give roughly 200 milliliters of a suspension containing the compound in finely divided form. The thus prepared stock suspension contained 0.5 percent by weight of compound. The test concentrations employed in the tests described below were obtained by diluting the stock suspension with water. The test procedures were as follows:
(§2) Experiments were also conducted to determine the phytotoxicity of representative compositions with respect to healthy fresh plants. Solutions of the compounds were prepared as described above to provide a concentration of 2500 parts per million of the test compound. The test plants were sprayed in accordance with the procedure described above for the Mite Foliage Spray Test so as to deliver approximately 100 milliliters of test solutions to the leaves of each plant tested. The sprayed plants and controls were set aside for approximately one hour to allow the solutions to dry and were then placed in the greenhouse. After ten days the plants were visually inspected to determine the extent of foliage injury. A rating of 1 indicates no perceptible injury; 5 indicates the plant was dead and ratings of 2, 3 and 4 indicate intermediate degrees of injury based upon the number and extent to which leaves were injured.

[2] = test system: Red root pigweed (Amaranthus); assay: Preliminary herbicide seed germination test (pre-emergent), red root pigweed; assay type: in vivo, Amaranthus retroflexus; set-up: key: 5: no seedling emerged; 4: few seedlings emerged and/or very severe stunting; 3: moderate reduction in stand and/or moderate stunting.; 2: very slight reduction in stand and/or slight stunting; 1: no injury, seedlings appear no different with respect to stand or growth than untreated controls; details: ten to twelve days after application
Description: as §1
(§3) The following seeds were used in this test:
Red root pigweed--Amaranthus retroflexus
(§4) Two […] mixtures were prepared as follows:
(§5) Each of the above mixtures was rolled separately in 5 gallon containers for approximately one-half hour on ball mill to insure uniform mixing of seeds and soil. For each compound four 3-inch pots were filled with soil to within 11/2 inches of top of pots. To two of these pots were added 70 cc. of Mixture I. To the remaining 2 pots were added 70 cc. of Mixture II. The seed-soil mixture was tamped firmly, and the pots were removed to the greenhouse and watered lightly. About 2 hours after planting, 25 milliliters of the test formulation were added to one pot containing Mixture I and one pot containing Mixture II. An equal volume of a water solution containing acetone and an emulsifier in the same concentration as the herbicidal mixture but without the candidate herbicide was also added to each of the soil-seed mixtures. These pots are used as check or control units. The test compounds were formulated by diluting the stock suspension with water to obtain the desired concentration of the compound in parts per million of the final formulation. Each compound was tested at the same concentration. […] Ratings were made according to the following designations: […]

Mustard = assay: Preliminary herbicide seed germination test (pre-emergent), mustard; assay type: in vivo, Brassica pincea var. foliosa (Florida broadleaf); set-up: key: 5: no seedling emerged; 4: few seedlings emerged and/or very severe stunting; 3: moderate reduction in stand and/or moderate stunting.; 2: very slight reduction in stand and/or slight stunting; 1: no injury, seedlings appear no different with respect to stand or growth than untreated controls; details: ten to twelve days after application
Description: as §1, §3
Mustard--Brassica pincea var. foliosa (Florida broadleaf)
as §4, §5

Crabgrass = assay: Preliminary herbicide seed germination test (pre-emergent), crabgrass; assay type: in vivo, Digitaria sanguinalis; set-up: key: 5: no seedling emerged; 4: few seedlings emerged and/or very severe stunting; 3: moderate reduction in stand and/or moderate stunting.; 2: very slight reduction in stand and/or slight stunting; 1: no injury, seedlings appear no different with respect to stand or growth than untreated controls; details: ten to twelve days after application
Description: as §1, §3
Crabgrass--Digitaria sanguinalis
as §4, §5

Tomato = assay: Post-emergent herbicidal test, tomato; assay type: in vivo; set-up: key: 1: no perceptible injury; 2: intermediate degrees of injury; 3: intermediate degrees of injury; 4: intermediate degrees of injury; 5: the plant was dead; details: 2500 parts per million, after ten days; for Post-emergent Herbicidal, Tomato: Table II; for Post Emergent Herbicidal, Tomato: Table III
Description: as §1, §2

Soybean = assay: Post-emergent herbicidal test, soybean; assay type: in vivo; set-up: key: 1: no perceptible injury; 2: intermediate degrees of injury; 3: intermediate degrees of injury; 4: intermediate degrees of injury; 5: the plant was dead; details: 2500 parts per million, after ten days; for Post-emergent Herbicidal, Soybean: Table II; for Post Emergent Herbicidal, Soybean: Table III
Description: as §1, §2

Corn = assay: Post-emergent herbicidal test, corn; assay type: in vivo; set-up: key: 1: no perceptible injury; 2: intermediate degrees of injury; 3: intermediate degrees of injury; 4: intermediate degrees of injury; 5: the plant was dead; details: 2500 parts per million, after ten days; for Post-emergent Herbicidal, Corn: Table II; for Post Emergent Herbicidal, Corn: Table III
Description: as §1, §2

SMILES	Miticidal, Egg [1]	Post-emergent Herbicidal, Bean (Bean)	Pre-emergent Herbicidal, Amaranthus ([2]; Table II)	Pre-emergent Herbicidal, Mustard (Mustard; Table II)	Pre-emergent Herbicidal, Crabgrass (Crabgrass; Table II)	Post-emergent Herbicidal, Tomato (Tomato)	Post-emergent Herbicidal, Soybean (Soybean)	Post-emergent Herbicidal, Corn (Corn)	LC50 [1]	Post Emergent Herbicidal, Bean (Bean)	Pre-emergent Herbicidal, Amaranthus ([2]; Table III)	Pre-emergent Herbicidal, Mustard (Mustard; Table III)	Pre-emergent Herbicidal, Crabgrass (Crabgrass; Table III)	Post Emergent Herbicidal, Tomato (Tomato)	Post Emergent Herbicidal, Soybean (Soybean)	Post Emergent Herbicidal, Corn (Corn)
Cc1ccc(C)c(C2=C(OC(=O)C(C)C)CCC2=O)c1 [Compound 12]	B	2	1	1	1	3	3	2								
CCCCC(CC)C(=O)OC1=C(c2ccccc2Cl)C(=O)CC1 (centres unmarked) [Compound 1]	A	3	5	5	5	2	3	4								
CCCCCCCCCC(=O)OC1=C(c2ccccc2C)C(=O)c2ccccc21 [reference compound]									500 µg/mL (≈ 1280 µM)	1	1	1	1	1	0	1
Cc1ccc(C2=C(OC(=O)c3ccccc3)CCC2=O)c(C)c1 [Compound 10]	B	3	1	1	2	1	1	3								
CCCCCCCCCCCCCCCC(=O)OC1=C(c2ccccc2C)C(=O)CC1 [Compound 8]	B	3	3	1	2	1	3	3								
Cc1ccc(C)c(C2=C(OC(=O)C(C)(C)C)C3CCCCC3C2=O)c1 (centres unmarked) [Compound 31]	A	1	1	1	1	1	2	2								
Cc1ccccc1C1=C(OC(=O)C(C)(C)C)c2ccccc2C1=O [reference compound]									270 µg/mL (≈ 843 µM)	1	2	2	2	1	0	1

Reference: patent publication US4551547A, “Biocidal 2-aryl-1, 3-cyclopentanedione enol ester compounds” (Union Carbide Corporation, priority 1983, dated 1985)
